# What was measured:
# [1] = system: Phakopsora pachyrhizi; test: Curative activity against soybean rust caused by Phakopsora pachyrhizi (Example G2, sprayed directly after 24 h incubation); type: in vivo; conditions: soybean seedlings, 300 ppm aqueous active compound preparation, sprayed to runoff after 24 h incubation, assessed after a further 14 days; untreated plants 90% infected
# Procedure: (§1) The active compounds were prepared separately or together as a stock solution with 25 mg of active compound, which was made up to 10 ml with a mixture of acetone and/or DMSO and the emulsifier Uniperol® EL (wetting agent with emulsifying and dispersant action based on ethoxylated alkylphenols) in the volume ratio solvent/emulsifier of 99 to 1. Subsequently, it was made up to 100 ml with water. This stock solution was diluted with the described solvent/emulsifier/water mixture to the active compound concentration indicated below. Alternatively to this, the active compounds were used as a commercially available ready-to-use solution and diluted with water to the active compound concentration indicated.
# Leaves of soybean seedlings grown in pots were inoculated with a spore suspension of soybean rust (Phakopsora pachyrhizi). The pots were then placed in a chamber of high atmospheric humidity (90 to 95%) and 23 to 27° C. for 24 hours. During this time, the spores germinated and the germ tubes penetrated into the leaf tissue. The infected plants were then sprayed to runoff point with the active compound solution described above at the active compound concentration indicated below. […] The extent of the rust fungus development on the leaves was then determined visually in % infections.
# [2] = system: Phakopsora pachyrhizi; test: Curative activity against soybean rust caused by Phakopsora pachyrhizi (Example G1, sprayed two days after incubation); type: in vivo; conditions: soybean seedlings, 300 ppm aqueous active compound preparation, sprayed to runoff two days after 24 h incubation, assessed after a further 10 days; untreated plants 90% infected
# Procedure: as §1
# Leaves of soybean seedlings grown in pots were inoculated with a spore suspension of soybean rust (Phakopsora pachyrhizi). The pots were then placed in a chamber of high atmospheric humidity (90 to 95%) and 23 to 27° C. for 24 hours. During this time, the spores germinated and the germ tubes penetrated into the leaf tissue. The infected plants were then cultivated further in a greenhouse at temperatures between 23 and 27° C. and 60 to 80% relative atmospheric humidity. After two days, the plants were sprayed to runoff point with the active compound solution described above at the active compound concentration indicated below. After the spray coating had dried on, the test plants were cultivated in a greenhouse at temperatures between 23 and 27° C. and 60 to 80% relative atmospheric humidity for a further 10 days. The extent of the rust fungus development on the leaves was then determined visually in % infections.
SMILES,"infection (extent of the rust fungus development on the leaves, determined visually) [1] [%]","infection (extent of the rust fungus development on the leaves, determined visually) [2] [%]"
"CC(C)[C@H](O)[C@@H](CCCCOc1cccc(F)c1F)n1nc[nH]c1=S (racemic) [I.A1, (RS,SR)-2-[5-(2,3-difluorophenoxy)-1-(1-hydroxy-2-methylpropyl)pentyl]-2,4-dihydro[1,2,4]triazole-3-thione]",0,
"CC(C)[C@H](O)[C@@H](CCCCOc1cccc(Cl)c1Cl)n1nc[nH]c1=S (racemic) [I.A2, (RS,SR)-2-[5-(2,3-dichlorophenoxy)-1-(1-hydroxy-2-methylpropyl)pentyl]-2,4-dihydro[1,2,4]triazole-3-thione]",,0
"CC(C)[C@H](O)[C@@H](CCCCOc1ccc(Cl)cc1Cl)n1nc[nH]c1=S (racemic) [I.A3, (RS,SR)-2-[5-(2,4-dichlorophenoxy)-1-(1-hydroxy-2-methylpropyl)pentyl]-2,4-dihydro[1,2,4]triazole-3-thione]",,0
"CC(C)[C@H](O)[C@@H](CCCCOc1cc(F)ccc1F)n1nc[nH]c1=S (racemic) [I.A4, (RS,SR)-2-[5-(2,5-difluorophenoxy)-1-(1-hydroxy-2-methylpropyl)pentyl]-2,4-dihydro[1,2,4]triazole-3-thione]",,0

# From US20110190122A1, “Triazole and Imidazole Compounds, Use Thereof and Agents Containing Them” (BASF SE, priority 2008, published 2011)
